Values quoted from earlier work, collected in patent US12121499B2, “Pharmaceutical composition comprising the phytocannabinoids cannabidivarin (CBDV) and cannabidiol (CBD)” (priority 2011, dated 2024).
Like-named read-outs stand apart in the source and are kept apart here.

Tests used:
[1] = tested on: grand mal seizures; settings: 200-300 mg cannabidiol plus regular medication
[2] = tested on: seizure frequency; settings: 900-1200 mg of cannabidiol a day for 10 months; single patient
[3] = tested on: seizure frequency in epileptic patients; settings: 200-300 mg of cannabidiol per day plus standard antiepileptic drugs; 12 epileptic patients
[4] = molecular target: CB2 receptor (Homo sapiens, UniProt P34972); settings: WO 2007/138322
Chain of CB2 receptor (P34972 whole entry): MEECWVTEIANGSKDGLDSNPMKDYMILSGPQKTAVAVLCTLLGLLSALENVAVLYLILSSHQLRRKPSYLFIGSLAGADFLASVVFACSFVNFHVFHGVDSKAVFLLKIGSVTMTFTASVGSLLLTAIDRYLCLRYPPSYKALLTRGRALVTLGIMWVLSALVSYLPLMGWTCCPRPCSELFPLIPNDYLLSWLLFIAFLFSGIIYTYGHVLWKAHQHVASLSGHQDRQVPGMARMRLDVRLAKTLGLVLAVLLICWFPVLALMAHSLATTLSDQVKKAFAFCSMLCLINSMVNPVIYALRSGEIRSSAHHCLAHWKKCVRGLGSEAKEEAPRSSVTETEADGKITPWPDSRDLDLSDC

[5] = rats; WO 2007/138322
[6] = molecular target: T1, CB1 receptor (Homo sapiens, UniProt P21554); settings: WO 2007/138322
T1 sequence (P21554 whole entry): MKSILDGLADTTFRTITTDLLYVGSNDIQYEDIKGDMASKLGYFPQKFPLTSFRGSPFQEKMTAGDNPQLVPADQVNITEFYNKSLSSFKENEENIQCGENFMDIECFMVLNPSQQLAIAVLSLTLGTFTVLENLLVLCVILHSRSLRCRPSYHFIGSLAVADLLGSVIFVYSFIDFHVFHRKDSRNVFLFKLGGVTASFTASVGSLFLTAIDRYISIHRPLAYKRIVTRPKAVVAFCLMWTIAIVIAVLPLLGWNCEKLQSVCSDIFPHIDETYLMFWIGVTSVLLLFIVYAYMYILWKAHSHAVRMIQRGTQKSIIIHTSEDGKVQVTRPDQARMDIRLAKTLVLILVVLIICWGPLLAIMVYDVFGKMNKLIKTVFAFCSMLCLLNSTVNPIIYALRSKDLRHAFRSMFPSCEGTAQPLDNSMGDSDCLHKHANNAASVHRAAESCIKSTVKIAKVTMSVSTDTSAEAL

[7] = tested on: seizures; settings: 5 institutionalized children not responding to phenobarbital and phenoytin
[8] = molecular target: T1, CB1 receptor; settings: WO 2006/054057; Pertwee (2000)
[9] = rats, doses greater than 200 mg/kg

C=C(C)[C@@H]1CCC(C)=C[C@H]1c1c(O)cc(CCCCC)cc1O [CBD, Cannabidiol]
patients who remained unchanged [1]: 1
patients who showed minor improvement [1]: 2
patients who showed partial improvement [1]: 2
unwanted effect [1]: mild sedation
patients who showed complete improvement ([1]; 16 grand mal patients in study): 3
seizure frequency [2]: markedly reduced
seizure frequency [3]: no significant improvement
action at the CB2 receptor [4]: inverse agonist
bodyweight [5]: reduced bodyweight
action at the CB1 receptor [6]: inverse agonist

CCCCCc1cc(O)c2c(c1)OC(C)(C)[C@@H]1CCC(C)=C[C@@H]21 [THC, Tetrahydrocannabinol]
seizure outcome [7]: One became entirely free of seizures, one became almost completely free of seizures, and the other three did no worse than before

CCCc1cc(O)c2c(c1)OC(C)(C)[C@@H]1CCC(C)=C[C@@H]21 [THCV, Tetrahydrocannabivarin]
action at the CB1 receptor [8]: CB1 receptor antagonist

CCC1(C)CC(=O)NC1=O (stereo not drawn) [ethosuximide]
motor and other side effects [9]: notable motor and other side effects (including sedation)

CCC1(c2ccccc2)C(=O)NC(=O)NC1=O [phenobarbital]
motor and other side effects (rat models of epilepsy, doses greater than 250 mg/kg): notable motor and other side effects (including sedation)

CCCC(CCC)C(=O)O [valproate]
motor and other side effects [9]: notable motor and other side effects (including sedation)
